Patent US7560586B2, “Acid and ester compounds and methods of using the same” (SmithKline Beecham Corporation, priority 2002, dated 2009)

Legend:
[1] = target: T1, LXRα ligand binding domain (Homo sapiens, UniProt Q13133); assay: Ligand Sensing Assay for LXRα Agonist Activity; type: biochemical; conditions: 1 μM; over a background reading of 10000 fluorescence units
T1 construct: his tag; made in house
T1 sequence (Q13133 183-447): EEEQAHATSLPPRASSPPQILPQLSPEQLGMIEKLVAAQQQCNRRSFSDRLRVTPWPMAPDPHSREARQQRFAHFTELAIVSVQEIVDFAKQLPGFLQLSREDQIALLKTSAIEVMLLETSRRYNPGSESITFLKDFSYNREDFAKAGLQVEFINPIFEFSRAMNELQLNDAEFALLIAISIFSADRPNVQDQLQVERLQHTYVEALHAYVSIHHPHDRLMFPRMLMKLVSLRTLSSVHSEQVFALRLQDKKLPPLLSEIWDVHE
T1 sequence (Q15788 676-700 partner): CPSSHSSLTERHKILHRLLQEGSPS
Protocol: Test Method 2: Ligand Sensing Assay for LXRα Agonist Activity
The assay for LXRα was run according to the procedures of Test Method 1, above using his-tagged LXRα ligand binding domain (amino acids 183447 of Genbank accession number U22662, with the 14th amino acid corrected to A from R). In this assay 1 μM 24(S), 25-epoxycholesterol gave a reading of 20000 fluorescence units over a background reading of 10000 fluorescence units.

[2] = target: T2, human LXRβ ligand binding domain (Homo sapiens, UniProt P55055); assay: Ligand Sensing Assay (LiSA) for LXRβ Agonist Activity (recruitment of SRC1-derived peptide, HTRF); type: biochemical; conditions: 1 μM; over a background reading of 10000 fluorescence units
T2 construct: LXRβLBD(185-461) is eluted with a gradient from 50 to 500 mM imidazole; made in house; host or cells: E. coli BL21(DE3), vector pRSETa
T2 sequence (P55055 184-460 limits assumed): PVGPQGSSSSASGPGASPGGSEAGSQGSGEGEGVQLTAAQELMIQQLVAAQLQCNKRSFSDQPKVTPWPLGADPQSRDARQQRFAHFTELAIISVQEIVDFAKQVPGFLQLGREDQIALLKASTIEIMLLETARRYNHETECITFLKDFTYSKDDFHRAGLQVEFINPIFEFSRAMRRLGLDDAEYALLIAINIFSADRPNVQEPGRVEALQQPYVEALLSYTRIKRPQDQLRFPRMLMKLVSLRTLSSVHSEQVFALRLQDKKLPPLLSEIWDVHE
T2 sequence (Q15788 676-700 partner limits assumed): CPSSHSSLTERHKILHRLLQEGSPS
Excerpt: Test Method 1: Ligand Sensing Assay (LiSA) for LXRβ Agonist Activity
This assay measures the recruitment of a peptide derived from the coactivator protein, SRC1, to the agonist-bound LXRβ. Peptides derived from other nuclear receptor cofactors may be similarly prepared and assayed.
To generate the human LXRβ ligand binding domain suitable for LiSA, a modified polyhistidine tag (MKKGHHHHHHG) (SEQ ID No. 1) was fused in frame to the human LXRβ ligand binding domain (amino acids 185461 of Genbank accession number U07132) and subcloned into the expression vector pRSETa (Invitrogen) under the control of an IPTG inducible T7 promoter. The human LXRβ ligand binding domain was expressed in E. coli strain BL21(DE3). Ten-liter fermentation batches were grown in Rich PO4 media with 0.1 mg/mL Ampicillin at 25° C. for 12 hours, cooled to 9° C. and held at that temperature for 36 hours to a density of OD600=14. At this cell density, 0.25 mM IPTG was added and induction proceeded for 24 hours at 9° C., to a final OD600=16. […]
Typically 25-50 g of cell paste is resuspended in 250-500 mL TBS, pH 8.0 (25 mM Tris, 150 mM NaCl). […] After washing to baseline absorbance with equilibration buffer, the column is washed with approximately one column volume of TBS pH […] containing 95 mM imidazole. […] After washing to baseline absorbance with the dilution buffer the protein is eluted with a gradient from 50-500 mM NaCl. […]

Q: How did the reading [1] turn out when `C[C@H](CC[C@@H]1OC1(C)C)[C@H]1CC[C@H]2[C@@H]3CC=C4C[C@@H](O)CC[C@]4(C)[C@H]3CC[C@]12C` [24(S), 25-epoxycholesterol] was run?
A: 20000 fluorescence units

Q: What about the reading [2] of the same compound?
A: 20000 fluorescence units
